Structures can show the parent of a compound that is named as a salt.
Legend:
[1] = system: normal human aortic smooth muscle cells; test: Cell growth inhibition tests against human vascular smooth muscle cells (XTT); type: cell-based; conditions: for GI50: read-out: growth inhibitory activity in terms of the GI50 value (concentration of 50% growth inhibition), cultured 72 hours with test compound, XTT, absorbance at 490 nm
Method: Cell Growth Inhibition Tests Against Human Vascular Smooth Muscle Cells
As human vascular smooth muscle cells, normal human aortic smooth muscle cells (Cambrex, catalog No. C-2571) were used. HuMedia-SB2 basal medium (Kurabo Industries, Ltd., catalog No. KS-2150S) containing 5% fetal bovine serum (Kurabo Industries, Ltd., catalog No. KS-6150), 0.5 ng/mL human recombinant epidermal growth factor (Kurabo Industries, Ltd., catalog No. KS-6150), 2 ng/mL human recombinant basic fibroblast growth factor (Kurabo Industries, Ltd., catalog No. KS-6150), 5 μg/mL insulin (Kurabo Industries, Ltd., catalog number KS-6150), 50 μg/mL gentamycin (Kurabo Industries, Ltd., catalog No. KS-6150), and 50 ng/mL amphotericin B (Kurabo Industries, Ltd., catalog No. KS-6150) was used for cell culture. The cells were cultured at 37° C. in a 5% carbon dioxide atmosphere.
The normal human aortic smooth muscle cells (1000 cells/well) were seeded in each well of 96-well plates (Nunc, catalog No. 167008), and cultured overnight. Test compounds diluted stepwise were added, and the cells were further cultured for 72 hours (final volume: 100 μL/well). Fifty μL XTT labeling mixture of Cell Proliferation Kit II (XTT) (Roche Diagnostics, catalog No. 1465015) was added to each well, and the plates were incubated at 37° C. After 4 hours, absorbance at 490 nm (reference wavelength: 655 nm) was measured with a plate reader (Molecular Device, SpectraMax 340PC^384). Growth ratios of the cells in the wells treated with the test compound was calculated based on the growth ratio of the cells in the control well treated with solvent (dimethyl sulfoxide (DMSO)) for 72 hours, which was defined as 100%.

melting point [°C] | Compound | GI50 [1] [µM] | inhibitory activity compared with the corresponding racemic mixture (Compound 12) ([1]; optically active compound versus racemic mixture)
 | CC(C)C(=O)N1N=C(NC(=O)C(C)(C)C)SC1(CCNS(C)(=O)=O)c1ccccc1 (single isomer, unassigned; (-)) [Compound d, (−)-N-[4-Isobutyryl-5-(2-methanesulfonylaminoethyl)-5-phenyl-4,5-dihydro-1,3,4-thia-diazol-2-yl]-2,2-dimethylpropanamide] | < 10 | 
188 to 191 | CCC(=O)N1N=C(N2CCCC2=O)SC1(CCNS(C)(=O)=O)c1ccccc1 (single isomer, unassigned; (-)) [Compound e, (−)-N-{2-[5-(2-Oxopyrrolidin-1-yl)-2-phenyl-3-propionyl-2,3-dihydro-1,3,4-thiadiazol-2-yl]ethyl}methanesulfonamide] | < 10 | 
175 to 182 | CC(C)(C)C(=O)NC1=NN(C(=O)C(C)(C)C)C(CN)(c2ccccc2)S1 (stereo not shown) (as salt: hydrochloride) [Compound j, N-[5-Aminomethyl-4-(2,2-dimethylpropionyl)-5-phenyl-4,5-dihydro-1,3,4-thiadiazol-2-yl]-2,2-dimethylpropanamide] |  | 
 | CC(C)(C)C(=O)NC1=NN(C(=O)C(C)(C)C)C(CCNS(C)(=O)=O)(c2ccccc2)S1 (single isomer, unassigned; (-)) [Compound a, (−)-N-[4-(2,2-Dimethylpropionyl)-5-(2-methanesulfonylaminoethyl)-5-phenyl-4,5-dihydro-1,3,4-thiadiazol-2-yl]-2,2-dimethylpropanamide] | < 10 | 
107 to 110 | CC(C)(C)C(=O)N1N=C(N2CCCC2=O)SC1(CCNS(C)(=O)=O)c1ccccc1 (single isomer, unassigned; (-)) [Compound c, (−)-N-{2-[3-(2,2-Dimethylpropionyl)-5-(2-oxopyrrolidin-1-yl)-2-phenyl-2,3-dihydro-1,3,4-thiadiazol-2-yl]ethyl}methanesulfonamide] |  | 
137 to 140 | CC(=O)N1N=C(N2CCCC2=O)SC1(CCNS(C)(=O)=O)c1ccccc1 (stereo not shown) [Compound g, N-{2-[3-Acetyl-5-(2-oxopyrrolidin-1-yl)-2-phenyl-2,3-dihydro-1,3,4-thiadiazol-2-yl]-ethyl}methanesulfonamide] |  | 
 | CCNCCS(=O)(=O)NCC1(c2ccccc2)SC(NC(=O)C(C)(C)C)=NN1C(=O)C(C)(C)C (single isomer, unassigned; (-)) [Compound l, (−)-N-[4-(2,2-Dimethylpropionyl)-5-(2-ethylaminoethanesulfonylaminomethyl)-5-phenyl-4,5-dihydro-1,3,4-thiadiazol-2-yl]-2,2-dimethylpropanamide] | < 10 | 
 | CCNCCS(=O)(=O)NCCC1(c2ccccc2)SC(NC(=O)C(C)(C)C)=NN1C(=O)C(C)(C)C (stereo not shown) [Compound i, N-{4-(2,2-Dimethylpropionyl)-5-[2-(2-ethylaminoethanesulfonylamino)-ethyl]-5-phenyl-4,5-dihydro-1,3,4-thiadiazol-2-yl}-2,2-dimethylpropanamide] | < 10 | 
169 to 171 | CC(=O)N1N=C(N2CCCCC2=O)SC1(CCNS(C)(=O)=O)c1ccccc1 (single isomer, unassigned; (-)) [Compound h, (−)-N-{2-[3-Acetyl-5-(2-oxopiperidino)-2-phenyl-2,3-dihydro-1,3,4-thiadiazol-2-yl]ethyl}methanesulfonamide] | < 10 | 
 | CC(C)(C)C(=O)NC1=NN(C(=O)C(C)(C)C)C(CNS(=O)(=O)CCSCCN)(c2ccccc2)S1 (stereo not shown) [Compound 24, N-{5-[2-(2-Aminoethylsulfanyl)ethanesulfonylaminomethyl]-4-(2,2-dimethyl-propionyl)-5-phenyl-4,5-dihydro[1,3,4]thiadiazol-2-yl}-2,2-dimethyl-propionamide] | < 10 | 
92 to 95 | CN(C)CCCS(=O)(=O)NCC1(c2ccccc2)SC(NC(=O)C(C)(C)C)=NN1C(=O)C(C)(C)C (single isomer, unassigned; (-)) [Compound n, (−)-N-[5-(3-Dimethylaminopropanesulfonylaminomethyl)-4-(2,2-dimethylpropionyl)-5-phenyl-4,5-dihydro-1,3,4-thiadiazol-2-yl]-2,2-dimethylpropanamide] | < 10 | 
101 to 104 | CN(C)CCS(=O)(=O)NCC1(c2ccccc2)SC(NC(=O)C(C)(C)C)=NN1C(=O)C(C)(C)C (single isomer, unassigned; (-)) [Compound m, (−)-N-[5-(2-Dimethylaminoethanesulfonylaminomethyl)-4-(2,2-dimethylpropionyl)-5-phenyl-4,5-dihydro-1,3,4-thiadiazol-2-yl]-2,2-dimethylpropanamide] | < 10 | more potent inhibitory activities
 | C=CS(=O)(=O)NCC1(c2ccccc2)SC(NC(=O)C(C)(C)C)=NN1C(=O)C(C)(C)C (stereo not shown) [Compound k, N-[4-(2,2-Dimethylpropionyl)-5-ethenesulfonylaminomethyl-5-phenyl-4,5-dihydro-1,3,4-thiadiazol-2-yl]-2,2-dimethylpropanamide] | < 10 | 
187 to 190 | CC(=O)N1N=C(NC(=O)C(C)(C)C)SC1(CCNS(C)(=O)=O)c1ccccc1 (single isomer, unassigned; (-)) [Compound f, (−)-N-[4-Acetyl-5-(2-methanesulfonylaminoethyl)-5-phenyl-4,5-dihydro-1,3,4-thiadiazol-2-yl]-2,2-dimethylpropanamide] |  | 
 | CC(C)(C)C(=O)NC1=NN(C(=O)C(C)(C)C)C(CCCC(=O)NCCO)(c2ccccc2)S1 (stereo not shown) [Compound o, 4-[3-(2,2-Dimethylpropionyl)-5-(2,2-dimethylpropionylamino)-2-phenyl-2,3-dihydro-1,3,4-thiadiazol-2-yl]-N-(2-hydroxyethyl)butanamide] | < 10 | 
 | CCC(=O)N1N=C(NC(=O)C(C)(C)C)SC1(CCNS(C)(=O)=O)c1ccccc1 (single isomer, unassigned; (-)) [Compound b, (−)-N-[5-(2-Methanesulfonylaminoethyl)-5-phenyl-4-propionyl-4,5-dihydro-1,3,4-thiadiazol-2-yl]-2,2-dimethylpropanamide] | < 10 | 
 | CC(C)(C)C(=O)NC1=NN(C(=O)C(C)(C)C)C(CN)(c2ccccc2)S1 (stereo not shown) [Compound j, N-[5-Aminomethyl-4-(2,2-dimethylpropionyl)-5-phenyl-4,5-dihydro-1,3,4-thiadiazol-2-yl]-2,2-dimethylpropanamide] | < 10 | 

From patent US7910611B2, “Therapeutic agent for restenosis” (Kyowa Hakko Kirin Co., Ltd., priority 2005, dated 2011)
